Our source for the MIC, Activity and log10cfu values is ChEMBL document CHEMBL1255330, “Efficacy of SPK-843, a novel polyene antifungal, in a murine model of systemic cryptococcosis” (Antimicrob Agents Chemother, 2008).

For data set [1], the system named is Cryptococcus neoformans. The data set is described as follows: Antifungal activity against Cryptococcus neoformans YC-11 by microdilution method. It counts as functional.
Data set [2] deals with Cryptococcus neoformans. Description: Antifungal activity against Cryptococcus neoformans YC-11 infected in BALB/c mouse assessed as increase in mouse survival at 1 mg/kg, iv qd for 5 days. It counts as functional, organism-based. Also on record: dose 1 mg/kg.
The subject of data set [3] is Cryptococcus neoformans. Description: Antifungal activity against Cryptococcus neoformans YC-11 infected in BALB/c mouse assessed as increase in mouse survival at 4 mg/kg, iv qd for 5 days. It counts as functional, organism-based. Also on record: dose 4 mg/kg.
Data set [4] has as its system Cryptococcus neoformans. Description: Antifungal activity against Cryptococcus neoformans YC-11 infected in BALB/c mouse assessed as reduction in fungal burden in brain at 1 mg/kg, iv qd for 5 days measured after 7 days of infection. Format: functional.
For data set [5], the system named is Cryptococcus neoformans. The data set is described as follows: Antifungal activity against Cryptococcus neoformans YC-11 infected in BALB/c mouse assessed as reduction in fungal burden in brain at 4 mg/kg, iv treated qd for 5 days measured after 7 days of infection. It counts as functional.
Data set [6] concerns Cryptococcus neoformans. Description: Antifungal activity against Cryptococcus neoformans YC-11 infected in BALB/c mouse brain assessed as reduction in fungal induced abscesses at 4 mg/kg, iv qd for 5 days measured after 7 days of infection by histopathological analysis. Format: functional, organism-based. Further details: dose 4 mg/kg.
Data set [7] concerns Cryptococcus neoformans. Description: Antifungal activity against Cryptococcus neoformans YC-11 infected in BALB/c mouse brain assessed as reduction in multiple fungal induced abscesses at 1 mg/kg, iv qd for 5 days measured after 7 days of infection by histopathological analysis. It counts as functional, organism-based. Also on record: dose 1 mg/kg.
The test system of data set [8] is Cryptococcus neoformans. The data set is described as follows: Antifungal activity against Cryptococcus neoformans YC-11 infected in BALB/c mouse brain assessed as reduction in multiple fungal induced abscesses at 2 mg/kg, iv qd for 5 days measured after 7 days of infection by histopathological analysis. It counts as functional, organism-based. Also on record: dose 2 mg/kg.

For data set [9], the system named is Mus musculus. The data set is described as follows: Toxicity in BALB/c mouse at 4 mg/kg, iv. Format: organism-based. Also on record: dose 4 mg/kg, route intravenous. Conditions: in vivo.
Data set [10] concerns Cryptococcus neoformans. Description: Antifungal activity against Cryptococcus neoformans YC-11 infected in BALB/c mouse assessed as reduction in fungal burden in brain at 2 mg/kg, iv qd for 5 days measured after 7 days of infection. It counts as functional.
The test system of data set [11] is Cryptococcus neoformans. Description: Antifungal activity against Cryptococcus neoformans YC-11 infected in BALB/c mouse assessed as increase in mouse survival at 0.5 mg/kg, iv qd for 5 days. Also on record: dose 0.5 mg/kg. It counts as functional, organism-based.
Data set [12] relates to Cryptococcus neoformans. Description: Antifungal activity against Cryptococcus neoformans YC-11 infected in BALB/c mouse assessed as increase in mouse survival at 0.7 mg/kg, iv qd for 5 days. It counts as functional, organism-based. Also on record: dose 0.7 mg/kg.
Data set [13] deals with Cryptococcus neoformans. Description: Antifungal activity against Cryptococcus neoformans YC-11 infected in BALB/c mouse kidney assessed as reduction in fungal induced tubular cell necrosis at 0.7 mg/kg, iv treated qd for 5 days measured after 7 days of infection by histopathological analysis. It counts as functional, organism-based. Further details: dose 0.7 mg/kg.
Data set [14] has as its system Cryptococcus neoformans. Description: Antifungal activity against Cryptococcus neoformans YC-11 infected in BALB/c mouse liver assessed as reduction in fungal induced liver damage at 4 mg/kg, iv qd for 5 days measured after 7 days of infection by histopathological analysis. Format: functional, organism-based. Further details: dose 4 mg/kg.
For data set [15], the system named is Cryptococcus neoformans. Description: Antifungal activity against Cryptococcus neoformans YC-11 infected in BALB/c mouse liver assessed as reduction in fungal induced liver damage at 0.7 mg/kg, iv qd for 5 days measured after 7 days of infection by histopathological analysis. Format: functional, organism-based. Further details: dose 0.7 mg/kg.
Data set [16] concerns Cryptococcus neoformans. Description: Antifungal activity against Cryptococcus neoformans YC-11 infected in BALB/c mouse assessed as increase in mouse survival at 80 mg/kg, iv qd for 5 days. It counts as functional, organism-based. Further details: dose 80 mg/kg.
Data set [17] relates to Cryptococcus neoformans. The data set is described as follows: Antifungal activity against Cryptococcus neoformans YC-11 infected in BALB/c mouse assessed as reduction in fungal burden in brain at 20 mg/kg, iv qd for 5 days measured after 7 days of infection. It counts as functional.
For data set [18], the system named is Cryptococcus neoformans. Description: Antifungal activity against Cryptococcus neoformans YC-11 infected in BALB/c mouse assessed as reduction in fungal burden in brain at 80 mg/kg, iv qd for 5 days measured after 7 days of infection. Format: functional.
In data set [19] the test system is Cryptococcus neoformans. Description: Antifungal activity against Cryptococcus neoformans YC-11 infected in BALB/c mouse brain assessed as reduction in multiple fungal induced abscesses at 80 mg/kg, iv qd for 5 days measured after 7 days of infection by histopathological analysis. It counts as functional, organism-based. Further details: dose 80 mg/kg.
In data set [20] the test system is Cryptococcus neoformans. Description: Antifungal activity against Cryptococcus neoformans YC-11 infected in BALB/c mouse assessed as reduction in fungal burden in brain at 40 mg/kg, iv qd for 5 days measured after 7 days of infection. Format: functional.

SMILES strings stand for the structures. Converted amounts (≈) assume the structure as drawn. The source made the active and inactive calls.

Broadly, the MIC is the smallest concentration in the dilution series that meets the test's criterion for growth inhibition. High values mean a less susceptible organism, low ones a more susceptible organism.

Turning to `CNc1ccc(C(=O)CC(O)CC[C@H](C)[C@H]2OC(=O)C[C@H](O)CC(=O)C[C@H](O)C[C@H](O)C[C@H](O)C[C@H](O)C[C@]3(O)C[C@H](O)[C@@H](C(=O)NCCN(C)C)C(C[C@@H](OC4O[C@H](C)[C@@H](O)[C@H](NC(=O)CN(C)C)[C@@H]4O)/C=C/C=C/C=C/C=C\C=C/C=C/C=C/[C@@H]2C)O3)cc1.O=C1O[C@H]([C@H](O)CO)C(O)=C1O` (some centres not stated), the MIC in data set [1] was determined as 0.125 µg/mL. For the same compound, the outcome in data set [2], in data set [3] and in [6] was Active. For the same compound, the log10cfu in data set [4] is 7.42; in [5], 3.45; in [10], 6.44. The outcome in data set [7] and in [8] was inactive. Moreover, the Activity result in data set [9] is “Non-toxic”.
Compound `C[C@@H]1[C@H](O)[C@@H](C)/C=C/C=C/C=C/C=C/C=C/C=C/C=C/[C@H](O[C@@H]2O[C@H](C)[C@@H](O)[C@H](N)[C@@H]2O)C[C@@H]2O[C@](O)(C[C@@H](O)C[C@@H](O)[C@H](O)CC[C@@H](O)C[C@@H](O)CC(=O)O[C@H]1C)C[C@H](O)[C@H]2C(=O)O` [AMPHOTERICIN B] yielded an MIC in [1] of 0.25 µg/mL (≈ 0.271 µM). Further, the result in data set [11], in [12], in data set [14] and in [15] was Active. The result in [13] was inactive.
In data set [1], `OC(Cn1cncn1)(Cn1cncn1)c1ccc(F)cc1F` [FLUCONAZOLE] returned an MIC of 2 µg/mL (≈ 6.53 µM). Besides, in data set [16], the outcome was Active. Besides, the log10cfu in [17] is 7.03; in data set [18], 6.34; in [20] it was 6.71. Further, the outcome in data set [19] was inactive.
